Tested on: BMP4-directed C3H10T1/2
Assay: Artemisinin and analogues on BMP4-directed C3H10T1/2 (morphology, Western blot)
Assay type: cell-based
Details: for cell morphology of C3H10T1/2: concentration shown in FIG. 8, from Day 0 of differentiation, vs control
Protocol: 4.3.1 Culture and Differentiation of C3H10T1/2 According to Method 2.4.1.
Artemisinin, artesunate and dihydroartemisinin were stored in DMSO at a storage concentration of 10 mMol/L. The concentration shown in FIG. 8 was added on Day 0 of differentiation. Fresh medium was replaced every two days, and the corresponding concentrations of compounds were added until the cells differentiated to mature.
The method for extracting C3H10T1/2 cell total protein was the same as 2.4.3;
Western blot method and catalog number of antibody was the same as 2.4.4.

SMILES	cell morphology of C3H10T1/2	expression of brown fat-related genes (C3H10T1/2)	expression level of UCP1 (dihydroartemisinin 1, 2.5, 5, 7.5 Mol/L, Western blot)	expression level of PGC1α (dihydroartemisinin, Western blot)
C[C@@H]1CC[C@H]2[C@@H](C)C(=O)O[C@@H]3O[C@@]4(C)CC[C@@H]1[C@]32OO4 [artemisinin]	exhibited similar morphological characteristics	–	–	–
C[C@H]1[C@H](OC(=O)CCC(=O)O)O[C@@H]2O[C@@]3(C)CC[C@H]4[C@H](C)CC[C@@H]1[C@@]24OO3 [artesunate]	exhibited similar morphological characteristics	–	–	–
C[C@H]1[C@@H](O)O[C@@H]2O[C@@]3(C)CC[C@H]4[C@H](C)CC[C@@H]1[C@@]24OO3 [dihydroartemisinin]	exhibited similar morphological characteristics	up-regulated	gradually increase with the increase of the concentration of dihydroartemisinin	gradually increase with the increase of the concentration of dihydroartemisinin
